Measured values reported in patent US20240279298A1 (BEIJING TUO JIE BIOPHARMACEUTICAL CO. LTD., priority 2021, published 2024).
Converted amounts (≈) assume the structure as drawn. Where a SMILES comes first, the peptide text is derived from it. [ ]: non-standard residue; d: D form. Aib = CC(C)(N)C(=O)O

Assays:
[1] = system: human liver microsomes
[2] = target: T1, human glucagon receptor (GCGR) (Homo sapiens, UniProt P47871); test: Agonist activity assay for GCGR (cAMP HTRF); assay type: cell-based; details: normalized by the activity of the native glucagon
T1 construct: expressed in transfected cells
Experimental: The activation of GCGR by related compounds will stimulate the formation of cyclic adenosine monophosphate (cAMP) in cells. Thus, the receptor activity can be monitored by cAMP production in proper cells expressing the receptor. […] The cells were passaged at least once for subsequent tests. Before testing, the cells were trypsinized, centrifuged, washed once, and resuspended in serum-free DMEM/F12 medium. The cell density was adjusted, and the cells were plated in a 96-well plate at a density of 2,500 cells/5 μL/well. […] The mixture was mixed well by moderate vibration, and incubated for 1 hour at room temperature away from light.

[3] = system: normal rats (blood glucose); test: Efficacy in normoglycemic rat model; assay type: in vivo, SD rats; details: for Blood glucose 15 min / Blood glucose 30 min / Blood glucose 45 min / Blood glucose 60 min: normal rats; for Hyperglycemic efficacy (in words): normoglycemic rats, subcutaneous
[4] = system: human kidney microsomes
[5] = Maximum solubility in phosphate buffer pH 7.4; assay type: physicochemical; details: phosphate buffer pH 7.4, room temperature
[6] = system: insulin-induced hypoglycemia rat model; test: Efficacy in insulin-induced hypoglycemic rat model; assay type: in vivo, SD rats; details: for Blood glucose 60 min / Blood glucose 75 min / Blood glucose 90 min / Blood glucose 105 min: insulin 0.65 IU/kg at T0
[7] = target: T2, human GIPR (Homo sapiens, UniProt P48546); test: Agonist activity assay for GIPR (cAMP HTRF); assay type: cell-based
T2 construct: expressed in transfected cells
T2 sequence (P48546 22-466): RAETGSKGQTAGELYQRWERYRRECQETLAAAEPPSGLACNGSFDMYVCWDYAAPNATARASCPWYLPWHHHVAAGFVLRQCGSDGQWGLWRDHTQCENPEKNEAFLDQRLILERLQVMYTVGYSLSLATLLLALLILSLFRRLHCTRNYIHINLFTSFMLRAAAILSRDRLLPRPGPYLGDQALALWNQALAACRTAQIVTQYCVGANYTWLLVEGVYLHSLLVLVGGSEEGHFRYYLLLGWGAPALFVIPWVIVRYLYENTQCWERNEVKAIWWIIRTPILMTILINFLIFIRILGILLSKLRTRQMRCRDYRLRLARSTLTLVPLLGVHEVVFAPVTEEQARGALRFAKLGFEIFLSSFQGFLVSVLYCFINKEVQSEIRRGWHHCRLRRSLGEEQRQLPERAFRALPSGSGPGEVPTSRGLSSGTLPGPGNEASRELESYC
Experimental: (§1) The activation of GCGR by related compounds will stimulate the formation of cyclic adenosine monophosphate (cAMP) in cells. Thus, the receptor activity can be monitored by cAMP production in proper cells expressing the receptor.
(§2) Agonist activity assay for GCGR: Cryopreserved stable CHO-K1/GCGR/CRE-Luc cells were taken from a liquid nitrogen tank, thawed in a 37° C. water bath, resuspended in DMEM/F12 medium (Sigma Cat #D8437), centrifuged, and seeded into T75 culture flasks. The cells were passaged at least once for subsequent tests. Before testing, the cells were trypsinized, centrifuged, washed once, and resuspended in serum-free DMEM/F12 medium. The cell density was adjusted, and the cells were plated in a 96-well plate at a density of 2,500 cells/5 μL/well. A 1×buffer solution in Cisbio-cAMP-Gs Dynamic kit was prepared, and IBMX was added at a final concentration of 0.5 mM. 5 μL of polypeptide serially diluted by buffer was added into each well, and the plate was shaken gently for mixing and incubated for 30 minutes at 37° C. cAMP-d2 and Anti-cAMP-Eu^3+-Cryptate were 20-fold diluted with cAMP Lysis and detection buffer respectively and mixed well. 5 μL of diluted cAMP-d2 solution and 5 μL of diluted Anti-cAMP-Eu^3+-Cryptate solution were sequentially added into each well. The mixture was mixed well by moderate vibration, and incubated for 1 hour at room temperature away from light.
Agonist activity assay for GIPR: The method differed from the method described above for the agonist activity assay for GCGR in that a stable CHO-K1/GIPR cell line was used, and the cell density was 3,000 cells/5 μL/well.

[8] = target: T3, human GLP-1R (Homo sapiens, UniProt P43220); test: Agonist activity assay for GLP-1R (cAMP HTRF); assay type: cell-based
T3 construct: expressed in transfected cells
Experimental: as §1, §2
Agonist activity assay for GLP-1R: The method differed from the method described above for the agonist activity assay for GCGR in that a stable CHO-GLP-1R cell line was used.

[9] = Chemical stability in phosphate buffer (UPLC purity); assay type: physicochemical
[10] = human, microsomes, 0.25 h, 1 μM
[11] = 0.5 nmol/kg subcutaneous single dose
[12] = 2 nmol/kg subcutaneous single dose
[13] = 6 nmol/kg subcutaneous single dose
[14] = 6 nmol/kg subcutaneous at 45 min
[15] = 12 nmol/kg subcutaneous at 45 min
[16] = 20 nmol/kg subcutaneous at 45 min
[17] = 4° C., phosphate buffer pH 7.4, 1 mg/mL
[18] = 25° C., phosphate buffer pH 7.4, 1 mg/mL

T1 sequence (P47871 26-477): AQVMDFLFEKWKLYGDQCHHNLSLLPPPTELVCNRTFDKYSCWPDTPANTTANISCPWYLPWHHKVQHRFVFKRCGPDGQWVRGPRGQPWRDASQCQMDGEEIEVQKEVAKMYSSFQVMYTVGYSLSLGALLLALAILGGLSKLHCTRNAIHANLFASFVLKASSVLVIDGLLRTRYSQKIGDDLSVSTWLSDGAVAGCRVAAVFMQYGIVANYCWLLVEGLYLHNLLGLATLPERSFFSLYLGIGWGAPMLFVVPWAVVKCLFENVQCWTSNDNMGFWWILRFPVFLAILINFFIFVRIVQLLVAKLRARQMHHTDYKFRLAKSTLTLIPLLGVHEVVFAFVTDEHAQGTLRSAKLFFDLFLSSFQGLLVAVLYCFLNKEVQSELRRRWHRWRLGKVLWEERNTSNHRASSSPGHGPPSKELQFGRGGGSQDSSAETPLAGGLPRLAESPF
T3 sequence (P43220 24-463): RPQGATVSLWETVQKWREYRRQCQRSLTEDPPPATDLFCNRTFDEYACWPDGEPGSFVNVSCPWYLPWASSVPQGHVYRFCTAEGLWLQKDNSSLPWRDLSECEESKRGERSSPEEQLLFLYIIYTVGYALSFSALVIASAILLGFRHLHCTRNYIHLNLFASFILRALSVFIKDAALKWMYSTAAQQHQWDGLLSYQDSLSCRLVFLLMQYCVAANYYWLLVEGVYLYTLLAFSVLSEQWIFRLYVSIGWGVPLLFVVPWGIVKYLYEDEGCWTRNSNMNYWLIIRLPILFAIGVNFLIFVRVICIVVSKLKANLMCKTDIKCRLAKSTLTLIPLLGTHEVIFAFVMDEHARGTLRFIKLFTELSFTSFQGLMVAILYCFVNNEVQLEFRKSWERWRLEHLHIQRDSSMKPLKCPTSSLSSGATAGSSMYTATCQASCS

CC(C)C[C@H](NC(=O)[C@H](Cc1ccc(O)cc1)NC(=O)[C@H](CCCCN)NC(=O)[C@H](CO)NC(=O)[C@H](Cc1ccc(O)cc1)NC(=O)[C@H](CC(=O)O)NC(=O)[C@H](CO)NC(=O)[C@@H](NC(=O)[C@H](Cc1ccccc1)NC(=O)[C@@H](NC(=O)CNC(=O)[C@H](CCC(N)=O)NC(=O)[C@H](CO)NC(=O)[C@@H](N)Cc1c[nH]cn1)[C@@H](C)O)[C@@H](C)O)C(=O)N[C@@H](CC(=O)O)C(=O)N[C@@H](CC(C)C)C(=O)NC(C)(C)C(=O)N[C@@H](CCCNC(=N)N)C(=O)N[C@@H](C)C(=O)N[C@@H](CCC(N)=O)C(=O)N[C@@H](CCC(=O)O)C(=O)N[C@@H](Cc1ccccc1)C(=O)N[C@H](C(=O)N[C@@H](CCC(N)=O)C(=O)N[C@@H](Cc1c[nH]c2ccccc12)C(=O)N[C@@H](CC(C)C)C(=O)N[C@@H](CCC(=O)O)C(=O)N[C@@H](CO)C(=O)N[C@H](C(=O)O)[C@@H](C)O)C(C)C [Compound 40] (H-HSQGTFTSDYSKYLDL[Aib]RAQEFVQWLEST-OH)
Percentage residues 0 min [1]: 100.0% | T½ ([1]; human, microsomes, 1 μM): 2.0895 h | Percentage residues 15 min [1, 10]: 100.5% | Percentage residues 30 min ([1]; human, microsomes, 0.5 h, 1 μM): 89.85% | Percentage residues 60 min ([1]; human, microsomes, 1 h, 1 μM): 66.96% | Percentage residues 120 min ([1]; human, microsomes, 2 h, 1 μM): 41.48% | Relative activity [2]: 318% | Blood glucose 15 min [3, 11]: 9.45 mmol/L | Blood glucose 30 min [3, 11]: 8.55 mmol/L | Blood glucose 45 min [3, 11]: 6.93 mmol/L | Blood glucose 60 min [3, 11]: 6.10 mmol/L | Blood glucose 15 min [3, 12]: 8.60 mmol/L | Blood glucose 30 min [3, 12]: 9.52 mmol/L | Blood glucose 45 min [3, 12]: 8.35 mmol/L | Blood glucose 60 min [3, 12]: 6.40 mmol/L | Blood glucose 15 min [3, 13]: 9.63 mmol/L | Blood glucose 30 min [3, 13]: 10.22 mmol/L | Blood glucose 45 min [3, 13]: 8.83 mmol/L | Blood glucose 60 min [3, 13]: 7.10 mmol/L | Hyperglycemic efficacy (in words) ([3]; listed as Glucagon analog 40): raised the blood glucose level in rats in a dose-dependent manner | Hyperglycemic efficacy (in words) ([3]; listed as glucagon analog 40): significantly better than that of Dasiglucagon | Percentage residues 0 min [4]: 100.0% | Percentage residues 60 min [4]: 25.16% | T½ ([4]; human, microsomes, 1 μM): 0.6365 h | Percentage residues 15 min [4, 10]: 63.34% | Percentage residues 30 min ([4]; human, microsomes, 0.5 h, 1 μM): 45.04% | Percentage residues 120 min ([4]; human, microsomes, 2 h, 1 μM): 10.61% | solubility at 5 min [5]: 5190 µg/mL (≈ 1520 µM) | Blood glucose 60 min [6, 14]: 6.65 mmol/L | Blood glucose 75 min [6, 14]: 9.05 mmol/L | Blood glucose 90 min [6, 14]: 7.08 mmol/L | Blood glucose 105 min [6, 14]: 6.99 mmol/L | Blood glucose 60 min [6, 15]: 7.40 mmol/L | Blood glucose 75 min [6, 15]: 9.50 mmol/L | Blood glucose 90 min [6, 15]: 9.13 mmol/L | Blood glucose 105 min [6, 15]: 8.63 mmol/L | Blood glucose 60 min [6, 16]: 6.87 mmol/L | Blood glucose 75 min [6, 16]: 9.68 mmol/L | Blood glucose 90 min [6, 16]: 9.28 mmol/L | Blood glucose 105 min [6, 16]: 9.00 mmol/L | Effect on raising blood glucose level (in words) ([6]; same dose (12 nmol/kg)): significantly better than that of Dasiglucagon and lasts longer | EC50 ([7]; CHO-K1/GIPR cell line, cAMP): > 0.1 µM | GIPR % Activity relative to native GIP ([7]; relative to native GIP): <0.0700% | GLP-1R % Activity relative to native GLP-1 [8]: 0.192% | Chemical stability in phosphate buffers (in words) [9]: better chemical stability in phosphate buffers than that of Dasiglucagon | Purity Day 7 [9, 17]: 99.40% | Purity Day 14 [9, 17]: 99.87% | Purity Day 21 [9, 17]: 100.27% | Purity Day 28 [9, 17]: 100.59% | Purity Day 7 [9, 18]: 99.70% | Purity Day 14 [9, 18]: 99.54% | Purity Day 21 [9, 18]: 97.63% | Purity Day 28 [9, 18]: 97.90% | Purity Day 0 ([9]; phosphate buffer pH 7.4, 1 mg/mL, day 0 (normalization)): 100.00%
